Results on 16 compounds are retold here after patent US11325938B2, “CD73 inhibitors” (ORIC Pharmaceuticals, Inc., priority 2018, dated 2022).

Bounds are passed on as bounds.

For the experiment, the target named is CD73 (Homo sapiens (Human), UniProt P21589). Put plainly: Biochemical assay: inhibition of CD73 activity (AMP hydrolysis, Malachite Green readout). The following applies: CD73 0.3208 nM, AMP 15 μM, 25 mM Tris-HCl pH 7.4, RT, absorbance 620 nm. The essentials: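 Phosphate from AMP hydrolysis (15 μM AMP, 10 min, RT) was detected by Malachite Green absorbance to give IC50s. Enzyme at 320 pM was first exposed 15 min to compounds, dosed from 100 μM in ½-log steps, in Tris pH 7.4 buffer with MgCl2, Brij-35 and BSA.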
CD73, sequence (P21589 27-574): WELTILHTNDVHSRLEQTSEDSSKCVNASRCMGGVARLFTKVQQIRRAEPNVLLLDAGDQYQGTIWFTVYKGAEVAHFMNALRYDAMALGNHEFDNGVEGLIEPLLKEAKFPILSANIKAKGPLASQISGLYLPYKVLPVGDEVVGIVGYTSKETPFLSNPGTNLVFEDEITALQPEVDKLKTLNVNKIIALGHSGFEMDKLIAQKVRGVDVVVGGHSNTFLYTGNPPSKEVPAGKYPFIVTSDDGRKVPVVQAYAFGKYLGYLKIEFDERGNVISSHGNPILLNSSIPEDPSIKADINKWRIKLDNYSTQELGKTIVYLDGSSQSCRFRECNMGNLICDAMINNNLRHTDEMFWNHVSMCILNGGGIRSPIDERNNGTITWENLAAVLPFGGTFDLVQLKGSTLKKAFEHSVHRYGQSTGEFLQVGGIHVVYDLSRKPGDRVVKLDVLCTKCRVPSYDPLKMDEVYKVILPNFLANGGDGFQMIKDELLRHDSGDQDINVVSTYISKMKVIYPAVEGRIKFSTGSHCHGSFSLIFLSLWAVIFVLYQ
The compound `CC#CC[C@@](CO)(OC[C@H]1O[C@@H](n2ncc3c(NC4CCCC4)nc(Cl)nc32)[C@H](O)[C@@H]1O)P(=O)(O)O` [Example 97, ((R)-2-(((2R,3S,4R,5R)-5-(6-chloro-4-(cyclopentylamino)-1H-pyrazolo[3,4-d]pyrimidin-1-yl)-3,4-dihydroxytetrahydrofuran-2-yl)methoxy)-1-hydroxyhex-4-yn-2-yl)phosphonic acid] registered a half-inhibitory concentration (IC50) of at most 100 nM.
Next, `CC#CC[C@](CO)(OC[C@H]1O[C@@H](n2ncc3c(NC4CCCC4)nc(Cl)nc32)[C@H](O)[C@@H]1O)P(=O)(O)O` [Example 98, ((S)-2-(((2R,3S,4R,5R)-5-(6-chloro-4-(cyclopentylamino)-1H-pyrazolo[3,4-d]pyrimidin-1-yl)-3,4-dihydroxytetrahydrofuran-2-yl)methoxy)-1-hydroxyhex-4-yn-2-yl)phosphonic acid]: at most 100 nM; `C[C@@](CO)(OC[C@H]1O[C@@H](n2ncc3c(N[C@@H]4CCc5ccc(F)cc54)nc(Cl)nc32)[C@H](O)[C@@H]1O)P(=O)(O)O` [Example 99, ((R)-2-(((2R,3S,4R,5R)-5-(6-chloro-4-(((R)-6-fluoro-2,3-dihydro-1H-inden-1-yl)amino)-1H-pyrazolo[3,4-d]pyrimidin-1-yl)-3,4-dihydroxytetrahydrofuran-2-yl)methoxy)-1-hydroxypropan-2-yl)phosphonic acid]: at most 100 nM; `O=P(O)(O)C(CO)(CO)OC[C@H]1O[C@@H](n2ncc3c(N[C@@H]4CCc5ccccc54)nc(OCCO)nc32)[C@H](O)[C@@H]1O` [Example 100, (2-(((2R,3S,4R,5R)-5-(4-(((R)-2,3-dihydro-1H-inden-1-yl)amino)-6-(2-hydroxyethoxy)-1H-pyrazolo[3,4-d]pyrimidin-1-yl)-3,4-dihydroxytetrahydrofuran-2-yl)methoxy)-1,3-dihydroxypropan-2-yl)phosphonic acid]: at most 100 nM.
To `C[C@@](CO)(OC[C@H]1O[C@@H](n2ncc3c(NC4CCC4)nc(Cl)nc32)[C@H](O)[C@@H]1O)P(=O)(O)O` [Example 101, ((R)-2-(((2R,3S,4R,5R)-5-(6-chloro-4-(cyclobutylamino)-1H-pyrazolo[3,4-d]pyrimidin-1-yl)-3,4-dihydroxytetrahydrofuran-2-yl)methoxy)-1-hydroxypropan-2-yl)phosphonic acid] belongs at most 100 nM.
On to `C[C@](CO)(OC[C@H]1O[C@@H](n2ncc3c(NC4CCC4)nc(Cl)nc32)[C@H](O)[C@@H]1O)P(=O)(O)O` [Example 102, ((S)-2-(((2R,3S,4R,5R)-5-(6-chloro-4-(cyclobutylamino)-1H-pyrazolo[3,4-d]pyrimidin-1-yl)-3,4-dihydroxytetrahydrofuran-2-yl)methoxy)-1-hydroxypropan-2-yl)phosphonic acid], for which the IC50 is at most 100 nM.
`O=P(O)(O)[C@](CO)(Cc1nn[nH]n1)OC[C@H]1O[C@@H](n2ncc3c(NC4CCCC4)nc(Cl)nc32)[C@H](O)[C@@H]1O` [Example 103, ((S)-2-(((2R,3S,4R,5R)-5-(6-chloro-4-(cyclopentylamino)-1H-pyrazolo[3,4-d]pyrimidin-1-yl)-3,4-dihydroxytetrahydrofuran-2-yl)methoxy)-1-hydroxy-3-(2H-tetrazol-5-yl)propan-2-yl)phosphonic acid] registered a half-inhibitory concentration (IC50) of at most 100 nM.
To `O=P(O)(O)[C@@](CO)(Cc1nn[nH]n1)OC[C@H]1O[C@@H](n2ncc3c(NC4CCCC4)nc(Cl)nc32)[C@H](O)[C@@H]1O` [Example 104, ((R)-2-(((2R,3S,4R,5R)-5-(6-chloro-4-(cyclopentylamino)-1H-pyrazolo[3,4-d]pyrimidin-1-yl)-3,4-dihydroxytetrahydrofuran-2-yl)methoxy)-1-hydroxy-3-(2H-tetrazol-5-yl)propan-2-yl)phosphonic acid] belongs at most 100 nM.
To `CC1(Nc2nc(Cl)nc3c2cnn3[C@@H]2O[C@H](CO[C@@](C)(CO)P(=O)(O)O)[C@@H](O)[C@H]2O)CCCC1` [Example 105, ((R)-2-(((2R,3S,4R,5R)-5-(6-chloro-4-((1-methylcyclopentyl)amino)-1H-pyrazolo[3,4-d]pyrimidin-1-yl)-3,4-dihydroxytetrahydrofuran-2-yl)methoxy)-1-hydroxypropan-2-yl)phosphonic acid] belongs at most 100 nM; to `CC1(Nc2nc(Cl)nc3c2cnn3[C@@H]2O[C@H](CO[C@](C)(CO)P(=O)(O)O)[C@@H](O)[C@H]2O)CCCC1` [Example 106, ((S)-2-(((2R,3S,4R,5R)-5-(6-chloro-4-((1-methylcyclopentyl)amino)-1H-pyrazolo[3,4-d]pyrimidin-1-yl)-3,4-dihydroxytetrahydrofuran-2-yl)methoxy)-1-hydroxypropan-2-yl)phosphonic acid], at most 100 nM.
Next, `CS(=O)(=O)CC(CO)(OC[C@H]1O[C@@H](n2ncc3c(NC4CCCC4)nc(Cl)nc32)[C@H](O)[C@@H]1O)P(=O)(O)O` (stereo partly drawn) [Example 107, (2-(((2R,3S,4R,5R)-5-(6-chloro-4-(cyclopentylamino)-1H-pyrazolo[3,4-d]pyrimidin-1-yl)-3,4-dihydroxytetrahydrofuran-2-yl)methoxy)-1-hydroxy-3-(methylsulfonyl)propan-2-yl)phosphonic acid]: at most 100 nM.
`C[C@](CO)(OC[C@H]1O[C@@H](n2ncc3c(N[C@@H]4CCc5ccc(F)cc54)nc(Cl)nc32)[C@H](O)[C@@H]1O)P(=O)(O)O` [Example 108, ((S)-2-(((2R,3S,4R,5R)-5-(6-chloro-4-(((R)-6-fluoro-2,3-dihydroxy-1H-inden-1-yl)amino)-1H-pyrazolo[3,4-d]pyrimidin-1-yl)-3,4-dihydroxytetrahydrofuran-2-yl)methoxy)-1-hydroxypropan-2-yl)phosphonic acid] showed an IC50 of at most 100 nM.
`COC[C@@](C)(OC[C@H]1O[C@@H](n2nnc3c(NC4CCCC4)nc(Cl)nc32)[C@H](O)[C@@H]1O)P(=O)(O)O` [Example 109, ((S)-2-(((2R,3S,4R,5R)-5-(5-chloro-7-(cyclopentylamino)-3H-[1,2,3]triazolo[4,5-d]pyrimidin-3-yl)-3,4-dihydroxytetrahydrofuran-2-yl)methoxy)-1-methoxypropan-2-yl)phosphonic acid]: the IC50 is at most 100 nM.
In the case of `COC[C@](C)(OC[C@H]1O[C@@H](n2nnc3c(NC4CCCC4)nc(Cl)nc32)[C@H](O)[C@@H]1O)P(=O)(O)O` [Example 110, ((R)-2-(((2R,3S,4R,5R)-5-(5-chloro-7-(cyclopentylamino)-3H-[1,2,3]triazolo[4,5-d]pyrimidin-3-yl)-3,4-dihydroxytetrahydrofuran-2-yl)methoxy)-1-methoxypropan-2-yl)phosphonic acid], the concentration for half-maximal inhibition (IC50) is at most 100 nM.
To `COCC(C)(OC[C@H]1O[C@@H](n2ncc3c(NC4CCCC4)cc(Cl)nc32)[C@H](O)[C@@H]1O)P(=O)(O)O` (stereo partly drawn) [Example 111, (2-(((2R,3S,4R,5R)-5-(6-chloro-4-(cyclopentylamino)-1H-pyrazolo[3,4-b]pyridin-1-yl)-3,4-dihydroxytetrahydrofuran-2-yl)methoxy)-1-methoxypropan-2-yl)phosphonic acid] belongs at most 100 nM.
Compound `CCP(=O)(O)C(CO)(CO)OC[C@H]1O[C@@H](n2ncc3c(NC4CCCC4)nc(Cl)nc32)[C@H](O)[C@@H]1O` [Example 112, (2-(((2R,3S,4R,5R)-5-(6-chloro-4-(cyclopentylamino)-1H-pyrazolo[3,4-d]pyrimidin-1-yl)-3,4-dihydroxytetrahydrofuran-2-yl)methoxy)-1,3-dihydroxypropan-2-yl)(ethyl)phosphinic acid] had a half-maximal inhibitory concentration (IC50) of 100 to 1000 nM.
